From US8026359B2, “Fungicidal heterocyclic amines” (E.I. du Pont de Nemours and Company, priority 2007, dated 2011) come the findings set out here.

Marks after values point to notes of the source that are not given here.

Type in all cases: in vivo
The subject of assay [1] is Puccinia recondita f. sp. tritici. In words: Test B: wheat leaf rust, preventive spray on wheat seedlings. As to conditions: 200 ppm, 100 = 100% disease control, 0 = no control relative to controls. The method in brief:
(§1)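 Two spray concentrations are used, 40 ppm and 200 ppm, the latter matching a rate of 500 g/ha, applied until run-off. The carrier is half acetone, half purified water with 250 ppm surfactant, and acetone for initial dissolution makes up 3% of the volume.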

Assay [2] deals with Fusarium graminearum. In words: whole plant or invertebrate. As to conditions: for Test E disease control rating: 200 ppm, 100 = 100% disease control, 0 = no control relative to controls.
In assay [3] the test system is Venturia inaequalis. The experiment in a line: Test O: apple scab, preventive spray on apple seedlings. As to conditions: 100 ppm (100 g/ha, 1000 L/ha), inoculated the following day, 100 = 100% disease control, 0 = no control relative to controls. The text has this: (§2) General protocol for preparing test suspensions for Tests A-R: The test compounds were first dissolved in acetone in an amount equal to 3% of the final volume and then suspended at the desired concentration (in ppm) in acetone and purified water (50/50 mix) containing 250 ppm of the surfactant Trem® 014 (polyhydric alcohol esters). The resulting test suspensions were then used in tests A-R. In Tests A-M, compounds were sprayed as a 200 ppm test suspension (equivalent to a rate of 500 g/ha) or as a 40 ppm test suspension to the point of runoff on the test plants. In Tests N-R, compounds were sprayed as a 100 g/ha test suspension (equivalent to a rate of 100 ppm) on the test plants at an application volume of 1000 L/ha. The test suspension was sprayed on apple seedlings.

Assay [4] concerns Septoria tritici. The experiment in a line: Test D: wheat leaf blotch, preventive spray on wheat seedlings. As to conditions: 200 ppm, 100 = 100% disease control, 0 = no control relative to controls. The method in brief: as §1
The test system of assay [5] is Botrytis cinerea. In words: Test F: tomato Botrytis, preventive spray on tomato seedlings. To be noted: 200 ppm, 100 = 100% disease control, 0 = no control relative to controls. The method in brief: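 Compounds dissolved in acetone (3% of final volume), suspended in 50/50 acetone/water with 250 ppm Trem® 014. Sprayed preventively to run-off on tomato seedlings at 200 ppm (500 g/ha) or 40 ppm.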

In assay [6] the test system is Uncinula necator. In words: Test N: grape powdery mildew, preventive spray on grape seedlings. To be noted: 100 ppm (100 g/ha, 1000 L/ha), inoculated the following day, 100 = 100% disease control, 0 = no control relative to controls.
From the text: as §2, with “grape” for “apple”

Assay [7] deals with Plasmopara viticola. The experiment in a line: Test R: grape downy mildew, preventive spray on grape seedlings. As to conditions: 100 ppm (100 g/ha, 1000 L/ha), inoculated the following day, 100 = 100% disease control, 0 = no control relative to controls.
From the text: as §2, with “grape” for “apple”, “seedlings. The following day the seedlings were inoculated with a spore suspension of Plasmopara viticola (the causal agent of grape downy mildew) and incubated in a saturated atmosphere at 20° C. for 24 h, then moved to a growth chamber at 20° C. for 7 days, after which time the test units were placed back into a saturated atmosphere at 20° C. for 24 h. Upon removal, disease ratings were made.” for “seedlings.”

Assay [8] relates to Alternaria solani. In words: Test H: tomato early blight, preventive spray on seedlings. The method in brief: as §1
Assay [9] concerns Septoria nodorum. In words: Test C: wheat glume blotch, preventive spray on wheat seedlings. As to conditions: 200 ppm, 100 = 100% disease control, 0 = no control relative to controls. The gist of the method:
as §1

Assay [10] concerns Erysiphe graminis f. sp. tritici. In words: Test A: wheat powdery mildew, preventive spray on wheat seedlings. The method in brief:
as §1

In assay [11] the test system is Colletotrichum orbiculare. In words: Test I: cucumber Colletotrichum anthracnose, preventive spray on cucumber seedlings. As to conditions: 100 = 100% disease control, 0 = no control relative to controls; for Test I disease control rating: 200 ppm. The gist of the method:
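Compound was dissolved in acetone (3% of final volume), then suspended in 50/50 acetone/water with 250 ppm Trem 014 surfactant. Cucumber seedlings were sprayed to run-off as a preventive treatment at 200 ppm (equivalent to 500 g/ha) or 40 ppm.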

Where [12] appears, read: 200 ppm, 100 = 100% disease control, 0 = no control relative to controls.

For `COC[C@H](C)Nc1nccc(-c2ncnc(Nc3ccc(C)c(F)c3)n2)n1` [Compound 25], the “Test B disease control rating” value in [1] amounted to 99%. For the same molecule, the “Test E disease control rating” value in [2] was 99%. In assay [3], the “Test O disease control rating” value turned out to be 59%. In addition, the “Test D disease control rating” value in assay [4] was 16%. In addition, the “Test F disease control rating” value in [5] was found to be 63%. Besides, the “Test N disease control rating” value in assay [6] was 99%. For the same molecule, the “Test R disease control rating” value in assay [7] is reported as 86%. Besides, the “Test H disease control rating” value in assay [8] (setting [12]) worked out at 99%. Moreover, the “Test C disease control rating” value in assay [9] is given as 100%.
As for `Fc1cccc(Nc2cc(-c3ccnc(NC4CCOCC4)n3)ccn2)c1` [Compound 67, 4-[2-[(3-fluorophenyl)amino]-4-pyridinyl]-N-(tetrahydro-2H-pyran-4-yl)-2-pyrimidinamine], the pest or weed control at 200 ppm in assay [1] (Puccinia recondita, 192 h, read-out: Test B disease control rating) amounted to 97%; in [2] (Fusarium graminearum, in Triticum aestivum, 192 h, read-out: Test E disease control rating), 0%; in assay [4] (Zymoseptoria tritici, 504 h, read-out: Test D disease control rating), 52%; in assay [5] (Botrytis cinerea, 120 h, read-out: Test F disease control rating) it was 95%; in [9] (Parastagonospora nodorum, 216 h, read-out: Test C disease control rating), 99%; in [10] (Blumeria graminis, 192 h, 200 ppm, 100 = 100% disease control, 0 = no control relative to controls, read-out: Test A disease control rating) it was 17%. Also, the pest or weed control at 200 ppm in [11] (Colletotrichum orbiculare, 144 h, read-out: Test I disease control rating) stood at 79%. Also, the “Test O disease control rating” value in [3] amounted to 73%. The “Test N disease control rating” value in assay [6] was found to be 55%. Moreover, the “Test R disease control rating” value in assay [7] stood at 94%.
As to `COC[C@H](C)Nc1nccc(-c2ncnc(Nc3cccc(Cl)c3)n2)n1` [Compound 16], the “Test B disease control rating” value in [1] stood at 99%. In addition, the “Test E disease control rating” value in [2] came out at 99%. In addition, the “Test O disease control rating” value in assay [3] is listed as 76%. Also, the “Test D disease control rating” value in [4] is listed as 71%. Also, in assay [5], the “Test F disease control rating” value is given as 96%. For the same molecule, the “Test N disease control rating” value in assay [6] turned out to be 99%. In addition, the “Test R disease control rating” value in assay [7] worked out at 40%. In addition, the “Test H disease control rating” value in assay [8] (setting [12]) was 98%. In assay [9], the “Test C disease control rating” value turned out to be 99%. The “Test I disease control rating” value in assay [11] worked out at 97%.
Turning to `COC[C@H](C)Nc1nccc(-c2ncnc(Nc3cccc(Br)c3)n2)n1` [Compound 11], the “Test B disease control rating” value in assay [1] came out at 96%. Besides, the “Test E disease control rating” value in assay [2] came out at 99%. For the same molecule, the “Test O disease control rating” value in [3] was 92%. Also, the “Test D disease control rating” value in [4] was 0%. Further, the “Test F disease control rating” value in [5] is 96%. Further, the “Test N disease control rating” value in [6] is on record as 85%. Further, the “Test R disease control rating” value in [7] worked out at 27%. Besides, in assay [8] (setting [12]), the “Test H disease control rating” value amounted to 98%. In addition, the “Test C disease control rating” value in assay [9] was 100%.
Consider `COC[C@H](C)Nc1nccc(-c2ncnc(Nc3ccc(C)c([N+](=O)[O-])c3)n2)n1` [Compound 26], for which the “Test B disease control rating” value in assay [1] stood at 98%. Also, the “Test E disease control rating” value in assay [2] was determined as 98%. The “Test O disease control rating” value in assay [3] is 96%. Moreover, the “Test D disease control rating” value in assay [4] was found to be 2%. Also, the “Test F disease control rating” value in assay [5] is on record as 17%. Besides, the “Test N disease control rating” value in assay [6] amounted to 69%. Further, the “Test R disease control rating” value in [7] is given as 96%. In assay [8] (setting [12]), the “Test H disease control rating” value is recorded as 91%. Also, the “Test C disease control rating” value in [9] is listed as 100%.
For the molecule `Clc1cccc(Cl)c1Nc1cc(-c2ccnc(NC3CCOCC3)n2)ccn1` [Compound 81], the “Test B disease control rating” value in [1] stood at 100%. Moreover, the “Test E disease control rating” value in [2] is reported as 97%. Besides, in [3], the “Test O disease control rating” value came to 69%. Besides, the “Test D disease control rating” value in assay [4] amounted to 92%. In addition, the “Test F disease control rating” value in assay [5] came out at 99%. For the same molecule, in assay [6], the “Test N disease control rating” value was determined as 97%. The “Test R disease control rating” value in assay [7] turned out to be 97%. The “Test C disease control rating” value in [9] was 99%. In addition, in assay [10] (setting [12]), the “Test A disease control rating” value was found to be 95%. The “Test I disease control rating” value in [11] stood at 91%.
For `COC[C@H](C)Nc1nccc(-c2ncnc(Nc3ccc(F)c(Cl)c3)n2)n1` [Compound 23], the “Test B disease control rating” value in assay [1] amounted to 98%. In addition, in [2], the “Test E disease control rating” value is on record as 98%. Moreover, in assay [3], the “Test O disease control rating” value stood at 99%. For the same molecule, the “Test D disease control rating” value in assay [4] amounted to 13%. For the same molecule, in assay [5], the “Test F disease control rating” value stood at 90%. In addition, the “Test N disease control rating” value in assay [6] came to 61%. The “Test R disease control rating” value in assay [7] is given as 30%. Further, the “Test H disease control rating” value in assay [8] (40 ppm (marked *)) is reported as 100* %. Also, the “Test C disease control rating” value in assay [9] came out at 100%. Moreover, the “Test A disease control rating” value in assay [10] (40 ppm (marked *)) is 0* %. Besides, the “Test I disease control rating” value in [11] worked out at 99%.
As for `Clc1cc(Cl)c(Nc2cc(-c3ccnc(NC4CCOCC4)n3)ccn2)c(Cl)c1` [Compound 99], the “Test B disease control rating” value in [1] was 95%. Further, the “Test E disease control rating” value in assay [2] turned out to be 92%. The “Test O disease control rating” value in assay [3] is given as 83%. In assay [4], the “Test D disease control rating” value is recorded as 30%. Also, the “Test F disease control rating” value in assay [5] came out at 0%. In addition, the “Test N disease control rating” value in [6] was 30%. Besides, the “Test R disease control rating” value in assay [7] turned out to be 99%. The “Test C disease control rating” value in [9] was 100%. Besides, in assay [10] (setting [12]), the “Test A disease control rating” value is on record as 0%. In [11], the “Test I disease control rating” value was 0%.
As for `COC[C@H](C)Nc1nccc(-c2ncnc(Nc3cccc(C)c3)n2)n1` [Compound 19], the “Test B disease control rating” value in assay [1] amounted to 97%. Further, the “Test E disease control rating” value in assay [2] was found to be 97%. The “Test O disease control rating” value in [3] stood at 33%. For the same molecule, the “Test D disease control rating” value in assay [4] came to 87%. Further, the “Test F disease control rating” value in assay [5] was determined as 99%. Moreover, the “Test N disease control rating” value in assay [6] was found to be 95%. For the same molecule, the “Test R disease control rating” value in assay [7] was 73%. For the same molecule, the “Test H disease control rating” value in assay [8] (setting [12]) was 93%. Further, the “Test C disease control rating” value in [9] was determined as 100%. The “Test I disease control rating” value in assay [11] is 99%.
